Data published in PubChem BioAssay AID2060909 (Molecular Pharmacology Branch, DTP, NCI, 2025).
pIC50: −log10 of the molar value.

Test system: 362531-283-R-J2-PDC complex spheroid viability
Assay: Anticancer human tumor 362531-283-R-J2-PDC patient-derived colon adenocarcinoma cell line growth inhibition [RAS]
Settings: for pIC50: curve of first compound; for viability, T/C: stronger effect = lower value
Excerpt: RAS pathway inhibitors in Combinations in Complex Spheroids
A high-throughput screen of multi-cell type tumor spheroids was designed to identify active combinations of RAS pathway inhibitors and targeted small molecules. Complex spheroids include a stromal component modeled by human endothelial cells (HUVEC) and fibroblasts modeled by human mesenchymal stem cells (MSCs). The concentration ranges selected for each drug and investigational agent were based upon clinically achievable concentrations if the clinical Cmax of the agent was known.
Compounds. The drugs and investigational agents: abemaciclib (NSC768073), cobimetinib (NSC768068), divarasib (GDC6063, NSC841802), docetaxel (NSC628503), GDC-1971 (RLY-1971, NSC841576), gemcitabine (NSC613327), inavolisib (NSC800729), ipatasertib (NSC767898), KB-0742 (NSC834161), MRTX-1133 (NSC836407), osimertinib (NSC779217), RMC-4630 (NSC839698), RMC-6236 (NSC851965), RMC-6291 (NSC852671), Ro-3306 (NSC812927), sapanisertib (NSC764658), SN-38 (NSC673596), staurosporine (NSC755774), SY5609 (NSC837396), and tovorafenib (DAY101, NSC766906), were obtained from the National Cancer Institute (NCI) Developmental Therapeutics Program Chemical Repository. The FDA-approved anticancer drug set is available from the NCI Developmental Therapeutics Program. […] The stock solutions were prepared in dimethyl sulfoxide (DMSO, Sigma-Aldrich, St. Louis, MO, cat. D2650) at 800-fold the tested concentration and stored at -70 degrees C prior to their use. All drugs and investigational agents were tested over a range starting from a high concentration at or near the clinical Cmax and decreasing in half-log increments. If the clinical Cmax for an agent had not been determined, the highest concentration tested was 10 microM.
Cell Culture. All cells were maintained in an incubator at 37 degrees C and 5% CO2 with 95% humidity. The PDC lines were cultured according to standard operating procedures established by the NCI PDMR. All PDCs were thawed and cultured in Matrigel-coated flasks prepared with a working solution of 1X Ham's F-12 nutrient mix, without supplementation (Invitrogen, Waltham, MA, cat. 11765054), 100 U/mL penicillin-streptomycin (Invitrogen, cat. 15140122), and 2.5% Matrigel (Corning Inc., Corning, NY, cat. 354248) for the first three passages. The 362531-283-R-J2-PDC and 782815-120-R-J1-PDC lines were cultured in 6C/Colon 1B media, which includes advanced DMEM/F-12 (Thermo Fisher Scientific, cat. 12634028), 10 mM HEPES (Thermo Fisher Scientific, cat. 15630080), 1X GlutaMAX supplement (Thermo Fisher Scientific, cat. 35050061), 0.1 mg/mL primocin (InvivoGen, San Diego, CA, cat. ant-pm-2), 10% defined fetal bovine serum, heat inactivated (HyClone Laboratories Inc., Logan, UT, cat. SH30070.03HI), 50% L-WRN conditioned media (ATCC, cat. CRL-3276), 1.25 mM N-Acetyl-L-cysteine (Sigma-Aldrich, cat. A9165), 10 mM nicotinamide (Sigma-Aldrich, cat. N0636), 1X B-27 supplement (Thermo Fisher Scientific, cat. 17504044), 1X N-2 supplement (Thermo Fisher Scientific, cat. 17502048), 50 ng/mL human EGF (Thermo Fisher Scientific, cat. PHG0311), and 10 microM Y-27632 dihydrochloride (Tocris Bioscience, cat. 1254). The K12877-001-R-J1-PDC line was cultured in 6I media, which includes all 6C/Colon 1B media plus 10 ng/mL human FGF-10 (PeproTech, cat. 100-26), 1 ng/mL human FGF-2 (PeproTech, cat. 100-18B), 1 µM prostaglandin E2 (Tocris Bioscience, cat. 2296), […] hydrocortisone (Sigma-Aldrich, cat. H4001), and […] bovine insulin (Sigma-Aldrich, cat. I6634). The K86415-001-R-J1-PDC line was cultured in 6D media, which includes all 6C/Colon 1B media components minus the L-WRN conditioned media. The 485176-168-R4-J1-PDC was cultured in PANC media, which includes all 6C/Colon 1B media plus 100 ng/mL human FGF-10 (PeproTech, cat. 100-26), 500 nM SB-431542 (Selleckchem, cat. S1067), and 10 nM gastrin (Tocris Bioscience, cat. 3006). […]

[1] = second compound 0.0316 µM, first compound 0.0316 µM
[2] = second compound 0.0316 µM, first compound 0.1 µM
[3] = second compound 0.1 µM, first compound 0.0316 µM
[4] = second compound 0.1 µM, first compound 0.1 µM
[5] = second compound 0.316 µM, first compound 0.0316 µM
[6] = second compound 0.316 µM, first compound 0.1 µM
[7] = second compound 1 µM, first compound 0.0316 µM
[8] = second compound 1 µM, first compound 0.1 µM
[9] = second compound 3.16 µM, first compound 0.0316 µM
[10] = second compound 3.16 µM, first compound 0.1 µM
[11] = second compound 10 µM, first compound 0.0316 µM
[12] = second compound 10 µM, first compound 0.1 µM
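Also: spheroids exposed to the agents for 7 days before readout.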
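For viability, T/C in this document: luminescence viability as percent of DMSO vehicle control wells.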

**Q.** How did the pIC50 (second compound 0.0316 µM) turn out when `CC(C)NCC(C(=O)N1CCN(c2ncnc3c2C(C)CC3O)CC1)c1ccc(Cl)cc1` (centres undefined) + C#Cc1c(F)ccc2cc(O)cc(-c3ncc4c(N5CC6CCC(C5)N6)nc(OCC56CCCN5CC(F)C6)nc4c3F)c12 was run?
**A.** < 5.00

**Q.** And the pIC50 (second compound 0.1 µM)?
**A.** < 5.00

**Q.** What about the pIC50 (second compound 0.316 µM) of the same molecule?
**A.** < 5.00

**Q.** And the pIC50 (second compound 1 µM)?
**A.** < 5.00

**Q.** And the pIC50 (second compound 3.16 µM)?
**A.** < 5.00

**Q.** What about the pIC50 (second compound 10 µM) of the same molecule?
**A.** > 7.50

**Q.** And the viability, T/C [1]?
**A.** 98.4%

**Q.** What about the viability, T/C [2] of the same molecule?
**A.** 100%

**Q.** And the viability, T/C (second compound 0.0316 µM, first compound 0.316 µM)?
**A.** 89.4%

**Q.** And the viability, T/C (second compound 0.0316 µM, first compound 1 µM)?
**A.** 102%

**Q.** And the viability, T/C (second compound 0.0316 µM, first compound 3.16 µM)?
**A.** 96.7%

**Q.** And the viability, T/C (second compound 0.0316 µM, first compound 10 µM)?
**A.** 87.5%

**Q.** And the viability, T/C [3]?
**A.** 84.4%

**Q.** What about the viability, T/C [4] of the same molecule?
**A.** 105%

**Q.** What about the viability, T/C (second compound 0.1 µM, first compound 0.316 µM) of the same molecule?
**A.** 94.9%

**Q.** What about the viability, T/C (second compound 0.1 µM, first compound 1 µM) of the same molecule?
**A.** 96.6%

**Q.** And the viability, T/C (second compound 0.1 µM, first compound 3.16 µM)?
**A.** 102%

**Q.** And the viability, T/C (second compound 0.1 µM, first compound 10 µM)?
**A.** 95%

**Q.** And the viability, T/C [5]?
**A.** 94%

**Q.** And the viability, T/C [6]?
**A.** 95.5%

**Q.** What about the viability, T/C (second compound 0.316 µM, first compound 0.316 µM) of the same molecule?
**A.** 92.6%

**Q.** What about the viability, T/C (second compound 0.316 µM, first compound 1 µM) of the same molecule?
**A.** 82.4%

**Q.** What about the viability, T/C (second compound 0.316 µM, first compound 3.16 µM) of the same molecule?
**A.** 83.7%

**Q.** And the viability, T/C (second compound 0.316 µM, first compound 10 µM)?
**A.** 65.1%

**Q.** And the viability, T/C [7]?
**A.** 79.9%

**Q.** What about the viability, T/C [8] of the same molecule?
**A.** 88.1%

**Q.** What about the viability, T/C (second compound 1 µM, first compound 0.316 µM) of the same molecule?
**A.** 78.3%

**Q.** And the viability, T/C (second compound 1 µM, first compound 1 µM)?
**A.** 81%

**Q.** What about the viability, T/C (second compound 1 µM, first compound 3.16 µM) of the same molecule?
**A.** 81.1%

**Q.** And the viability, T/C (second compound 1 µM, first compound 10 µM)?
**A.** 75.5%

**Q.** And the viability, T/C [9]?
**A.** 61.5%

**Q.** What about the viability, T/C [10] of the same molecule?
**A.** 73.6%

**Q.** What about the viability, T/C (second compound 3.16 µM, first compound 0.316 µM) of the same molecule?
**A.** 66.9%

**Q.** What about the viability, T/C (second compound 3.16 µM, first compound 1 µM) of the same molecule?
**A.** 87%

**Q.** And the viability, T/C (second compound 3.16 µM, first compound 3.16 µM)?
**A.** 63%

**Q.** And the viability, T/C (second compound 3.16 µM, first compound 10 µM)?
**A.** 53.2%

**Q.** What about the viability, T/C [11] of the same molecule?
**A.** 43.3%

**Q.** What about the viability, T/C [12] of the same molecule?
**A.** 39.6%

**Q.** And the viability, T/C (second compound 10 µM, first compound 0.316 µM)?
**A.** 43.9%

**Q.** What about the viability, T/C (second compound 10 µM, first compound 1 µM) of the same molecule?
**A.** 47%

**Q.** What about the viability, T/C (second compound 10 µM, first compound 3.16 µM) of the same molecule?
**A.** 50.6%

**Q.** What about the viability, T/C (second compound 10 µM, first compound 10 µM) of the same molecule?
**A.** 39.3%

**Q.** What does the source list for `CC(C)n1nc(-c2ccc3oc(N)nc3c2)c2c(N)ncnc21` + C#Cc1c(F)ccc2cc(O)cc(-c3ncc4c(N5CC6CCC(C5)N6)nc(OCC56CCCN5CC(F)C6)nc4c3F)c12?
**A.** pIC50 (second compound 0.0316 µM): < 7.00; pIC50 (second compound 0.1 µM): < 7.00; pIC50 (second compound 0.316 µM): 7.69; pIC50 (second compound 1 µM): 7.88; pIC50 (second compound 3.16 µM): 8.51; pIC50 (second compound 10 µM): > 9.50; viability, T/C (second compound 0.0316 µM, first compound 0.000316 µM): 96%; viability, T/C (second compound 0.0316 µM, first compound 0.001 µM): 87.6%; viability, T/C (second compound 0.0316 µM, first compound 0.00316 µM): 91.9%; viability, T/C (second compound 0.0316 µM, first compound 0.01 µM): 78.7%; viability, T/C [1]: 50.2%; viability, T/C [2]: 53.2%; viability, T/C (second compound 0.1 µM, first compound 0.000316 µM): 104%; viability, T/C (second compound 0.1 µM, first compound 0.001 µM): 98%; viability, T/C (second compound 0.1 µM, first compound 0.00316 µM): 86.3%; viability, T/C (second compound 0.1 µM, first compound 0.01 µM): 68%; viability, T/C [3]: 66.6%; viability, T/C [4]: 48.7%; viability, T/C (second compound 0.316 µM, first compound 0.000316 µM): 91.9%; viability, T/C (second compound 0.316 µM, first compound 0.001 µM): 94.5%; viability, T/C (second compound 0.316 µM, first compound 0.00316 µM): 85.6%; viability, T/C (second compound 0.316 µM, first compound 0.01 µM): 62.5%; viability, T/C [5]: 41.1%; viability, T/C [6]: 41.5%; viability, T/C (second compound 1 µM, first compound 0.000316 µM): 80.4%; viability, T/C (second compound 1 µM, first compound 0.001 µM): 86.2%; viability, T/C (second compound 1 µM, first compound 0.00316 µM): 78.2%; viability, T/C (second compound 1 µM, first compound 0.01 µM): 51.9%; viability, T/C [7]: 45.9%; viability, T/C [8]: 38.4%; viability, T/C (second compound 3.16 µM, first compound 0.000316 µM): 74.2%; viability, T/C (second compound 3.16 µM, first compound 0.001 µM): 55.2%; viability, T/C (second compound 3.16 µM, first compound 0.00316 µM): 57.4%; viability, T/C (second compound 3.16 µM, first compound 0.01 µM): 35.3%; viability, T/C [9]: 33.6%; viability, T/C [10]: 26.1%; viability, T/C (second compound 10 µM, first compound 0.000316 µM): 42.9%; viability, T/C (second compound 10 µM, first compound 0.001 µM): 42.5%; viability, T/C (second compound 10 µM, first compound 0.00316 µM): 34%; viability, T/C (second compound 10 µM, first compound 0.01 µM): 25.5%; viability, T/C [11]: 20.1%; viability, T/C [12]: 18.3%
